Experimental data as given in publication PMC5632197 (Bioorganic & medicinal chemistry, 2017).
“Also recorded” adds a separate entry of the source. Read-outs that look alike come from different tables or passages of the source.

Experiments:
T. brucei = details: 7-day 50 mg/kg/day intraperitoneal dosage; cited from earlier work
CNS stage of HAT = details: cited from earlier work
[1] = mice; cited from earlier work
[2] = biological target: T1, T. brucei AdoMetDC/prozyme (Trypanosoma brucei brucei, UniProt P50244); test: T. brucei AdoMetDC enzyme activity assay; assay type: biochemical; details: for fold less active against AdoMetDC compared to parent: compared to 1 (27 versus 11a), IC50 with PI
T1 sequence (P50244 86-370 limits assumed): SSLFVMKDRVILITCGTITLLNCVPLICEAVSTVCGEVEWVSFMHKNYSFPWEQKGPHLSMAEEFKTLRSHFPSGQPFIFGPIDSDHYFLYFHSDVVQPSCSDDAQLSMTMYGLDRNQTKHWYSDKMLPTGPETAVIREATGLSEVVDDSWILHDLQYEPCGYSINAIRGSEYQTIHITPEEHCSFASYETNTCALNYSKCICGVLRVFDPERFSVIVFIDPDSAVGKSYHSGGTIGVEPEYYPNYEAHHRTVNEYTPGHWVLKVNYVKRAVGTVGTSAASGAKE

[3] = test system: T. brucei Lister 427 bloodstream-form cells; test: T. brucei cell growth inhibition assay; assay type: cell-based, Trypanosoma brucei brucei
[4] = AdoMetDC IC50 with PI, with 30 min pre-incubation, triplicate
[5] = AdoMetDC IC50 without PI, without pre-incubation, triplicate

Row | SMILES | IC50 [2, 4] [µM] | IC50 [2, 5] [µM] | further results
1 | CN(C/C=C\CN)C[C@H]1O[C@@H](n2cnc3c(N)ncnc32)[C@H](O)[C@@H]1O [Compound 1, 5'-(((Z)-4-amino-2-butenyl)methylamino)-5'-deoxyadenosine] | – | – | cure of mice infected with T. brucei (T. brucei): sterile cure; cure in mouse model of the CNS stage of HAT (CNS stage of HAT): not efficacious; also recorded: neither compound led to a cure; brain-to-blood ratio [1]: 1.7%
2 | Cc1nc2c(N)ncnc2n1[C@@H]1O[C@H](CN(C)C/C=C\CNC(=O)OC(C)C)[C@@H](O)[C@H]1O [Compound 3c] | > 50 | > 50 | –
3 | CCCC(=O)NC/C=C\CN(C)C[C@H]1O[C@@H](n2cnc3c(N)ncnc32)[C@H](O)[C@@H]1O [Compound 5c] | > 50 | > 50 | –
4 | CN(C/C=C\CN)C[C@H]1O[C@@H](n2cnc3c(N)ncnc32)[C@@H]2OC(C)(C)O[C@@H]21 [Compound 11a] | – | – | fold less active against AdoMetDC compared to parent [2]: ~ 50 fold; fold reduced activity in T. b. brucei cell growth assay compared to 1 ([3]; EC50 compared to parent MDL 73811 (1)): ~ 50 fold
5 | CN(CC=CCN)CC1OC(n2cnc3c(N)ncnc32)C2OC3(CCCCC3)OC12 (stereo not drawn) [Compound 22] | – | – | IC50 ([2]; read-out: AdoMetDC IC50, pre-incubation not stated): > 50 µM; EC50 ([3]; read-out: EC50 (T. b. brucei), 48 h cell viability, triplicate): > 25 µM
6 | CNc1ncnc2c1ncn2[C@@H]1O[C@H](CN(C)C/C=C\CN)[C@H]2OC(C)(C)O[C@H]21 [Compound 27] | – | > 50 | fold less active against AdoMetDC compared to parent [2]: 3- to 4 fold
7 | CNc1ncnc2c1ncn2[C@@H]1O[C@H](CN(C)C/C=C\CN)[C@@H](O)[C@H]1O [Compound 28a] | – | – | fold less active against AdoMetDC compared to parent [2]: 3- to 4 fold
8 | CN(C/C=C\CN)C[C@H]1O[C@@H](n2cnc3c(N(C)C)ncnc32)[C@H](O)[C@@H]1O [Compound 28b] | – | – | fold less active against AdoMetDC compared to parent [2]: ~ 20 fold
9 | CC(C)Nc1ncnc2c1ncn2[C@@H]1O[C@H](CN(C)C/C=C\CN)[C@@H](O)[C@H]1O [Compound 28c] | – | – | fold less active against AdoMetDC compared to parent [2]: 3- to 4 fold
10 | CCOc1ncnc2c1ncn2[C@@H]1O[C@H](CN(C)C/C=C\CN)[C@@H](O)[C@H]1O [Compound 28d] | – | – | fold less active against AdoMetDC compared to parent [2]: ~16 fold
11 | CN(C/C=C\CN)C[C@H]1O[C@@H](n2cnc3cncnc32)[C@@H]2OC(C)(C)O[C@@H]21 [Compound 30] | > 50 | > 50 | –
12 | CCCCCCCCC(=O)Nc1ncnc2c1ncn2[C@@H]1O[C@H](CN(C)C/C=C\CN)[C@H]2OC(C)(C)O[C@H]21 [Compound 31] | – | – | fold more potent inhibition of AdoMetDC enzymatic activity than 11a ([2]; compared to comparator 11a): 3.5 fold; fold more potent inhibition of T.b. brucei proliferation than 11a ([3]; compared to comparator 11a): 2.6 fold

Continued, in another order:

Row | IC50 [2, 4] [µM] | IC50 [2, 5] [µM] | SMILES | further results
13 | > 50 | > 50 | CC(=O)NC/C=C\CN(C)C[C@H]1O[C@@H](n2cnc3c(N)ncnc32)[C@H](OC(C)=O)[C@@H]1OC(C)=O [Compound 6a] | –
14 | > 50 | > 50 | CCC(=O)NC/C=C\CN(C)C[C@H]1O[C@@H](n2cnc3c(N)ncnc32)[C@H](OC(C)=O)[C@@H]1OC(C)=O [Compound 6b] | –
15 | > 50 | > 50 | CCCC(=O)NC/C=C\CN(C)C[C@H]1O[C@@H](n2cnc3c(N)ncnc32)[C@H](OC(C)=O)[C@@H]1OC(C)=O [Compound 6c] | –
16 | > 50 | > 50 | Cc1nc2c(N)ncnc2n1[C@@H]1O[C@H](CN(C)C/C=C\CNC(=O)OC(C)(C)C)[C@H]2OC(C)(C)O[C@H]21 [Compound 10a] | –
17 | – | > 50 | Cc1nc2c(N)ncnc2n1[C@@H]1O[C@H](CN(C/C=C\CNC(=O)OC(C)(C)C)C2CC2)[C@H]2OC(C)(C)O[C@H]21 [Compound 10c] | –
18 | > 50 | > 50 | CC1(C)O[C@@H]2[C@H](O1)[C@@H](CN(C/C=C\CN)CCF)O[C@H]2n1cnc2c(N)ncnc21 [Compound 11b] | –
19 | > 50 | > 50 | Cc1nc2c(N)ncnc2n1[C@@H]1O[C@H](CN(C/C=C\CN)C2CC2)[C@H]2OC(C)(C)O[C@H]21 [Compound 11c] | –
20 | > 50 | > 50 | Cc1nc2c(N)ncnc2n1[C@@H]1O[C@H](CN(C/C=C\CN)CCO)[C@H]2OC(C)(C)O[C@H]21 [Compound 11d] | –
21 | – | > 50 | NC/C=C\CN(CCF)C[C@H]1O[C@@H](n2cnc3c(N)ncnc32)[C@H](O)[C@@H]1O [Compound 12b] | –
22 | > 50 | > 50 | Cc1nc2c(N)ncnc2n1[C@@H]1O[C@H](CN(C/C=C\CN)C2CC2)[C@@H](O)[C@H]1O [Compound 12c] | –
